Data reported in patent US11583525B2, “Geranylgeranyltransferase I inhibitor for treatment of a PTEN defective cancer” (H. LEE MOFFITT CANCER CENTER AND RESEARCH INSTITUTE, INC., priority 2017, dated 2023).
Peptide text beside a SMILES is read from it. * marks the point of attachment. Cbz = O=C(OCc1ccccc1)*

Tested on: Ca2+ response
Assay: Ca2+ response measured with aequorin in COS-7 cells expressing IP3R3(Q-FR/A-AA)
Assay type: cell-based, African Green Monkey
Settings: serum re-stimulated 4 h with MG132, ATP
Protocol: FIGS. 1A, 1B, 1C, 1D, 1E, 1F, 1G, and 1H show FBXL2-mediated degradation of IP3R3 controls Ca2+ flux and sensitivity to apoptosis. […] Left, two representative traces. Right, quantification of three independent experiments. P values were calculated by one-way ANOVA and multiple-comparisons test. Error bars indicate s.e.m. 1b, 1c, and 1d, Apoptosis evaluated after treatment with H2O2 using automated nuclei count analysis of twenty randomly chosen fields following a 16 h treatment (1b), immunoblot detection of cleaved PARP and cleaved caspase-3 following a 3 h treatment (1c), and automated analysis of cells with released cytochrome c (Cyt c) from 80 randomly chosen fields following a 3 h treatment (1d). […] P values were calculated by one-way ANOVA and multiple-comparisons test. […] Left, representative traces show concentrations of cytosolic Ca2+ measured with aequorin. Right, quantification of three independent experiments. P values were calculated by one-way ANOVA and multiple-comparisons test. […] Apoptosis shown in 1h was evaluated as in 1b, except that H2O2 treatment was for 5 h. Analysis of cytochrome c release shown in 1i was evaluated as in 1d. P values were calculated by unpaired t-test. […]
FIGS. 7A, 7B, 7C, 7D, 7E, 7F, 7G, 7H, and 7I show FBXL2 controls Ca2+ mobilization and Ca2+-mediated apoptosis. […] P values were calculated by one-way ANOVA and multiple-comparisons test. […]

Question: `CC(C)C[C@@H](C=O)NC(=O)[C@H](CC(C)C)NC(=O)[C@H](CC(C)C)NC(=O)OCc1ccccc1` [MG132] (Cbz-Leu-Leu-Leu-aldehyde) was tested. Which “Ca2+ response” value did it give?
Answer: did not produce an increase of the Ca2+ response
